US11384078B2, “5,6-fused-bicyclic compounds and compositions for the treatment of parasitic diseases” (NOVARTIS AG, priority 2017, dated 2022)

Experiments:
Assay type in all cases: cell-based
[1] = system: Trypanosoma cruzi amastigotes cultured in 3T3 fibroblast cells; assay: Assay for growth inhibition of kinetoplastid parasite Trypanosoma cruzi (beta-galactosidase Tulahuen strain, CPRG readout); settings: Trypanosoma cruzi, Fibroblast, T. cruzi amastigotes in 3T3 fibroblast cells; read-out: Buckner infectious T. cruzi EC50
How it was run: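 3T3 fibroblasts (1,000 cells/well) plated overnight, treated with compound in DMSO, then infected with 10,000 Lac-Z-expressing Tulahuen trypomastigotes. After 6 days, 0.6 mM CPRG with 0.6% NP-40 added for 2 h at room temperature; absorbance gives relative intracellular amastigote numbers. Benznidazole and nifurtimox serve as positive controls.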

[2] = system: L. donovani HU3 strain in mouse peritoneal macrophages; assay: Assay for inhibition of parasitemia of Leishmania donovani in mouse macrophages (SYBR Green nuclei count, high-content imaging); settings: Leishmania donovani, Peritoneal macrophage, L. donovani in mouse peritoneal macrophages; read-out: L. donovani in Mouse Macrophages EC50
How it was run: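 Peritoneal macrophages from uninfected BALB/c mice were infected for 24 h with spleen-derived L. donovani HU3 (4×10^5 parasites per 2×10^4 macrophages), then cultured with compound for 5 days at 37° C, 5% CO2. After fixation and permeabilization, parasite nuclei were stained with SYBR Green and counted by high-content imaging.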

[3] = system: Trypanosoma brucei brucei (Lister 427) strain; assay: Assay for growth inhibition against Trypanosoma brucei brucei (Cell TiterGlo ATP luminescence); settings: Trypanosoma brucei, T. brucei brucei (Lister 427); read-out: T. Brucei (HAT) EC50
How it was run: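 T. b. brucei Lister 427 grown in HMI-9 with 10% FBS and 10% serum plus, seeded at 10,000 parasites/mL with 10-point threefold compound dilutions in duplicate, 37 °C for 2 days. Viability read as ATP luminescence 30 min after Cell TiterGlo; IC50 versus untreated controls.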

[4] = system: Leishmania donovani axenic amastigote; assay: In vitro assay for growth inhibition of Leishmania donovani axenic amastigote (Cell TiterGlo luminescence); settings: Leishmania donovani, L. donovani axenic amastigotes in vitro; read-out: L. donovani amastigotes EC50
How it was run: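 Axenic L. donovani amastigotes (9600/well) grown at 37 °C, 5% CO2 in supplemented RPMI 1640, pH 5.5, with compound added from DMSO. After two days, viability read by CellTiter-Glo luminescence against DMSO and control-compound wells.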

| Structure (SMILES) | EC50 [1] [nM] | EC50 [2] [nM] | EC50 [3] [nM] | EC50 [4] [nM] |
| --- | --- | --- | --- | --- |
| O=C(Nc1ccc(F)c(-n2cc3cc(N4CC(F)C4)cnc3n2)c1)N1CC(F)(F)C1 [Compound 303, 3,3-difluoro-N-{4-fluoro-3-[5-(3-fluoroazetidin-1-yl)-2H-pyrazolo[3,4-b]pyridin-2-yl]phenyl}azetidine-1-carboxamide] | 10 | 15 | 5 | 490 |
| Cn1cc(-c2cnc3nn(-c4cc(NC(=O)N5CC(F)C5)ccc4F)cc3c2)cn1 [Compound 304, 3-fluoro-N-{4-fluoro-3-[5-(1-methyl-1H-pyrazol-4-yl)-2H-pyrazolo[3,4-b]pyridin-2-yl]phenyl}azetidine-1-carboxamide] | 30 | 3 | 5 | 4 |
| O=C(Nc1ccc(F)c(-n2cc3cc(C4CCN(Cc5ccc(F)cc5)CC4)cnc3n2)c1)N1CC(F)C1 [Compound 305, 3-fluoro-N-[4-fluoro-3-(5-{1-[(4-fluorophenyl)methyl]piperidin-4-yl]-2H-pyrazolo[3,4-b]pyridin-2-yl)phenyl]azetidine-1-carboxamide] | 1 | 3 | 5 | 110 |
| [2H]C([2H])([2H])N(c1cnc2nn(-c3cc(NC(=O)N4CCC4)ccc3F)cc2c1)C([2H])([2H])[2H] [Compound 306, N-(3-{5-[bis(^2H3)methylamino]-2H-pyrazolo[3,4-b]pyridin-2-yl}-4-fluorophenyl)azetidine-1-carboxamide] | 2 | 4 | 5 | 90 |
| [2H]C([2H])([2H])N(c1cnc2nn(-c3cc(NC(=O)N4CC(F)(F)C4)ccc3F)cc2c1)C([2H])([2H])[2H] [Compound 307, N-(3-{5-[bis(^2H3)methylamino]-2H-pyrazolo[3,4-b]pyridin-2-yl}-4-fluorophenyl)-3,3-difluoroazetidine-1-carboxamide] | 16 | 12 | 5 | 281 |
| [2H]C([2H])([2H])N(c1cnc2nn(-c3cc(NC(=O)N4CC[C@@H](F)C4)ccc3F)cc2c1)C([2H])([2H])[2H] [Compound 308, (3R)-N-(3-{5-[bis(^2H3)methylamino]-2H-pyrazolo[3,4-b]pyridin-2-yl}-4-fluorophenyl)-3-fluoropyrrolidine-1-carboxamide] | 4 | 2 | 5 | 568 |
| O=C(Nc1ccc(F)c(-n2cc3cc(-c4ncccc4F)cnc3n2)c1)N1CC(F)(F)C1 [Compound 309, 3,3-difluoro-N-{4-fluoro-3-[5-(3-fluoropyridin-2-yl)-2H-pyrazolo[3,4-b]pyridin-2-yl]phenyl}azetidine-1-carboxamide] | 1 | 2 | 5 | 1 |
| O=C(Nc1ccc(F)c(-n2cc3cc(-c4ncccc4Cl)cnc3n2)c1)N1CC(F)(F)C1 [Compound 310, N-{3-[5-(3-chloropyridin-2-yl)-2H-pyrazolo[3,4-b]pyridin-2-yl]-4-fluorophenyl}-3,3-difluoroazetidine-1-carboxamide] | 1 | 2 | 5 | 2 |
| O=C(Nc1ccc(F)c(-n2cc3cccnc3n2)c1)N1CC(F)C1 [Compound 311, 3-fluoro-N-(4-fluoro-3-(2H-pyrazolo[3,4-b]pyridin-2-yl)phenyl)azetidine-1-carboxamide] | 31 | 33 | 27 | 58 |
| Cc1nccnc1-c1cnc2nn(-c3cc(NC(=O)N4CC(F)C4)ccc3F)cc2c1 [Compound 312, 3-fluoro-N-{4-fluoro-3-[5-(3-methylpyrazin-2-yl)-2H-pyrazolo[3,4-b]pyridin-2-yl]phenyl}azetidine-1-carboxamide] | 4 | 2 | 33 | 3 |
| O=C(Nc1ccc(F)c(-n2cc3cc(-c4ncccc4F)cnc3n2)c1)N1CCC1 [Compound 313, N-{4-fluoro-3-[5-(3-fluoropyridin-2-yl)-2H-pyrazolo[3,4-b]pyridin-2-yl]phenyl}azetidine-1-carboxamide] | 1 | 2 | 5 | 1 |
| O=C(Nc1ccc(F)c(-n2cc3cc(-c4ncccc4Cl)cnc3n2)c1)N1CCC1 [Compound 315, N-{3-[5-(3-chloropyridin-2-yl)-2H-pyrazolo[3,4-b]pyridin-2-yl]-4-fluorophenyl}azetidine-1-carboxamide] | 1 | 2 | 5 | 2 |
| O=C(Nc1ccc(F)c(-n2cc3cc(-c4ncccc4Cl)cnc3n2)c1)N1CC[C@@H](F)C1 [Compound 316, (3R)-N-{3-[5-(3-chloropyridin-2-yl)-2H-pyrazolo[3,4-b]pyridin-2-yl]-4-fluorophenyl}-3-fluoropyrrolidine-1-carboxamide] | 1 | 2 | 5 | 2 |
| O=C(Nc1ccc(F)c(-n2cc3cc(-c4ncccc4F)cnc3n2)c1)N1CC[C@@H](F)C1 [Compound 317, (3R)-3-fluoro-N-{4-fluoro-3-[5-(3-fluoropyridin-2-yl)-2H-pyrazolo[3,4-b]pyridin-2-yl]phenyl}pyrrolidine-1-carboxamide] | 1 | 2 | 5 | 2 |
| Cc1cnc2nn(-c3cc(NC(=O)N4CC(F)C4)ccc3F)cc2c1 [Compound 318, 3-fluoro-N-(4-fluoro-3-{5-methyl-2H-pyrazolo[3,4-b]pyridin-2-yl}phenyl)azetidine-1-carboxamide] | 13 | 32 | 15 | 27 |
| O=C(Nc1ccc(F)c(-n2cc3cc(-n4ccnc4)cnc3n2)c1)N1CC(F)C1 [Compound 323, 3-fluoro-N-{4-fluoro-3-[5-(1H-imidazol-1-yl)-2H-pyrazolo[3,4-b]pyridin-2-yl]phenyl}azetidine-1-carboxamide] | 62 | 113 | 15 | 12 |
| O=C(Nc1ccc(F)c(-n2cc3cc(C(F)(F)F)cnc3n2)c1)N1CC(F)(F)C1 [Compound 324, 3,3-difluoro-N-{4-fluoro-3-[5-(trifluoromethyl)-2H-pyrazolo[3,4-b]pyridin-2-yl]phenyl}azetidine-1-carboxamide] | 16 | 45 | 37 | 15 |
| O=C(Nc1ccc(F)c(-n2cc3cc(-c4cnn(C5CC5)c4)cnc3n2)c1)N1CC(F)C1 [Compound 325, N-{3-[5-(1-cyclopropyl-1H-pyrazol-4-yl)-2H-pyrazolo[3,4-b]pyridin-2-yl]-4-fluorophenyl}-3-fluoroazetidine-1-carboxamide] | 36 | 50 | 11 | 8 |
| O=C(Nc1ccc(F)c(-n2cc3cc(N4CC(F)(F)C4)cnc3n2)c1)C1CC1 [Compound 326, N-{3-[5-(3,3-difluoroazetidin-1-yl)-2H-pyrazolo[3,4-b]pyridin-2-yl]-4-fluorophenyl}cyclopropanecarboxamide] | 119 | 761 | 236 | 189 |
| O=C(Nc1ccc(F)c(-n2cc3cc(N4CC(F)C4)cnc3n2)c1)C1CC1 [Compound 327, N-{4-fluoro-3-[5-(3-fluoroazetidin-1-yl)-2H-pyrazolo[3,4-b]pyridin-2-yl]phenyl}cyclopropanecarboxamide] | 149 | 1200 | 232 | 351 |
| Cc1cn(-c2cnc3nn(-c4cc(NC(=O)N5CC(F)C5)ccc4F)cc3c2)cn1 [Compound 328, 3-fluoro-N-{4-fluoro-3-[5-(4-methyl-1H-imidazol-1-yl)-2H-pyrazolo[3,4-b]pyridin-2-yl]phenyl}azetidine-1-carboxamide] | 83 | 160 | 17 | 23 |
| O=C(Nc1ccc(F)c(-n2cc3cc(-c4ccc(F)cn4)cnc3n2)c1)N1CC(F)C1 [Compound 329, 3-fluoro-N-{4-fluoro-3-[5-(5-fluoropyridin-2-yl)-2H-pyrazolo[3,4-b]pyridin-2-yl]phenyl}azetidine-1-carboxamide] | 1 | 2 | 2 | 1 |
| O=C(Nc1ccc(F)c(-n2cc3cc(-c4ccc(F)cn4)cnc3n2)c1)N1CCC1 [Compound 330, N-{4-fluoro-3-[5-(5-fluoropyridin-2-yl)-2H-pyrazolo[3,4-b]pyridin-2-yl]phenyl}azetidine-1-carboxamide] | 1 | 2 | 1 | 1 |
| CN(C)c1cnc2nn(-c3cc(NC(=O)C4CC4)ccc3F)cc2c1 [Compound 331, N-{3-[5-(dimethylamino)-2H-pyrazolo[3,4-b]pyridin-2-yl]-4-fluorophenyl}cyclopropanecarboxamide] | 138 | 910 | 206 | 217 |
